Reference: BindingDB's records for doi:10.1021/jm020335m (Abbott Laboratories, 2003)

Assays:
[1] = Inhibition of concanavalin A stimulated rat splenocyte proliferation
[2] = Inhibition of concanavalin A stimulated T-cell proliferation in human PBMCs

Row | Structure (SMILES) | EC50 [1] [nM] | EC50 [2] [nM]
1 | C=CCC1Oc2cccc(C=C)c2-c2ccc3c(c21)C(C)=CC(C)(C)N3 (configuration not stated) [5-Allyl-2,2,4-trimethyl-10-vinyl-2,5-dihydro-1H-6-oxa-1-aza-chrysene] | 90 | > 1000
2 | C=CCC1Oc2cccc(Cl)c2-c2ccc3c(c21)C(C)=CC(C)(C)N3 (configuration not stated) [5-Allyl-10-chloro-2,2,4-trimethyl-2,5-dihydro-1H-6-oxa-1-aza-chrysene] | > 1000 | 440
3 | C=CCC1Oc2cccc(OC(F)F)c2-c2ccc3c(c21)C(C)=CC(C)(C)N3 (configuration not stated) [5-Allyl-10-difluoromethoxy-2,2,4-trimethyl-2,5-dihydro-1H-6-oxa-1-aza-chrysene] | 85 | 563
4 | C=CCC1Oc2ccc(O)c(OC)c2-c2ccc3c(c21)C(C)=CC(C)(C)N3 (configuration not stated) [5-Allyl-10-methoxy-2,2,4-trimethyl-2,5-dihydro-1H-6-oxa-1-aza-chrysen-9-ol] | 78 | 145

These reach a lower EC50 [1]. Values come first.

Row | EC50 [1] [nM] | EC50 [2] [nM] | Structure (SMILES)
5 | 48 | 780 | C=CCC1Oc2cccc(OC)c2-c2ccc3c(c21)C(C)=CC(C)(C)N3 (configuration not stated) [5-Allyl-10-methoxy-2,2,4-trimethyl-2,5-dihydro-1H-6-oxa-1-aza-chrysene]
6 | 48 | 418 | C=CCC1Oc2cccc(NC)c2-c2ccc3c(c21)C(C)=CC(C)(C)N3 (configuration not stated) [(5-Allyl-2,2,4-trimethyl-2,5-dihydro-1H-6-oxa-1-aza-chrysen-10-yl)-methyl-amine]
